Data taken from ChEMBL document CHEMBL1201862, “PubChem BioAssay data set” (2004).
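Cultured in 96-well plates, cells were exposed to test compound for 48 hours across five concentrations. Abbreviation: GI50, concentration required for 50% inhibition of growth.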 Activity calls are given as the source filed them. Cut-off read from the data, not from the text of the source: active = GI50 up to about 1.1 µM and inactive = higher.

How the values were obtained:
Assay in all cases: growth of human tumour cells (NCI), 48 h
Malme-3M = system: Malme-3M
UACC-257 = system: UACC-257
HOP-18 = system: HOP-18
KM-20L2 = system: KM-20L2
A498 = system: A498
NCI-H23 = system: NCI-H23
K562 = system: K562
DLD-1 = system: DLD-1
CAKI-1 = system: CAKI-1
DMS-273 = system: DMS-273
HCC 2998 = system: HCC 2998
SF-295 = system: SF-295
OVCAR-5 = system: OVCAR-5
SK-MEL-2 = system: SK-MEL-2
M19-MEL = system: M19-MEL
UO-31 = system: UO-31
HT-29 = system: HT-29
M14 = system: M14
SW-620 = system: SW-620
IGROV-1 = system: IGROV-1
RXF 393 = system: RXF 393
U-251 = system: U-251
DMS-114 = system: DMS-114
COLO 205 = system: COLO 205
OVCAR-8 = system: OVCAR-8
UACC-62 = system: UACC-62
RXF 631 = system: RXF 631
ACHN = system: ACHN
NCI-H460 = system: NCI-H460
HCT-116 = system: HCT-116
SF-268 = system: SF-268
HL-60 = system: HL-60
SK-MEL-28 = system: SK-MEL-28
EKVX = system: EKVX
786-0 = system: 786-0
SK-OV-3 = system: SK-OV-3
SNB-19 = system: SNB-19
HOP-92 = system: HOP-92
KM12 = system: KM12
SNB-75 = system: SNB-75
OVCAR-3 = system: OVCAR-3
HCT-15 = system: HCT-15
SN12C = system: SN12C
SNB-78 = system: SNB-78
NCI-H226 = system: NCI-H226
A549 = system: A549
SF-539 = system: SF-539
RPMI-8226 = system: RPMI-8226
HOP-62 = system: HOP-62
OVCAR-4 = system: OVCAR-4

## O=C1C=C(Nc2cc(Cl)ccc2Cl)c2ccccc2C1=O
Malme-3M
  GI50: 19.4 µM (inactive)
UACC-257
  GI50: 24 µM (inactive)
HOP-18
  GI50: 22.6 µM (inactive)
KM-20L2
  GI50: > 100 µM (inactive)
A498
  GI50: 26.6 µM (inactive)
NCI-H23
  GI50: 20.7 µM (inactive)
K562
  GI50: 13.5 µM (inactive)
DLD-1
  GI50: 45.3 µM (inactive)
CAKI-1
  GI50: 32.2 µM (inactive)
DMS-273
  GI50: 21.3 µM (inactive)
HCC 2998
  GI50: 27.5 µM (inactive)
SF-295
  GI50: 25.1 µM (inactive)
OVCAR-5
  GI50: 39 µM (inactive)
SK-MEL-2
  GI50: 15.4 µM (inactive)
M19-MEL
  GI50: 15.7 µM (inactive)
UO-31
  GI50: 23.9 µM (inactive)
HT-29
  GI50: 86.9 µM (inactive)
M14
  GI50: 19.9 µM (inactive)
SW-620
  GI50: 29.3 µM (inactive)
IGROV-1
  GI50: 64.1 µM (inactive)
RXF 393
  GI50: 55.5 µM (inactive)
U-251
  GI50: 25.2 µM (inactive)
DMS-114
  GI50: 25.5 µM (inactive)
COLO 205
  GI50: 36.1 µM (inactive)
OVCAR-8
  GI50: 16 µM (inactive)
UACC-62
  GI50: 16.9 µM (inactive)
RXF 631
  GI50: > 100 µM (inactive)
ACHN
  GI50: 26.1 µM (inactive)
NCI-H460
  GI50: 25.9 µM (inactive)
HCT-116
  GI50: 34.1 µM (inactive)
SF-268
  GI50: 64.3 µM (inactive)
HL-60
  GI50: 15.8 µM (inactive)
SK-MEL-28
  GI50: 38.6 µM (inactive)
EKVX
  GI50: > 100 µM (inactive)
786-0
  GI50: 34.8 µM (inactive)
SK-OV-3
  GI50: 51.6 µM (inactive)
SNB-19
  GI50: 46.2 µM (inactive)
HOP-92
  GI50: 20.4 µM (inactive)
KM12
  GI50: 23 µM (inactive)
SNB-75
  GI50: 25.9 µM (inactive)
OVCAR-3
  GI50: 23 µM (inactive)
HCT-15
  GI50: 26.5 µM
SN12C
  GI50: 38.5 µM (inactive)
SNB-78
  GI50: > 100 µM (inactive)
NCI-H226
  GI50: 23.9 µM (inactive)
A549
  GI50: 35.9 µM (inactive)
SF-539
  GI50: 33.3 µM (inactive)
RPMI-8226
  GI50: 20.9 µM (inactive)
HOP-62
  GI50: 26.1 µM (inactive)
OVCAR-4
  GI50: 47.6 µM (inactive)
